In experiment [1] the test system is p62, LC3, cleaved caspase 3, Bax, HIF1a. The experiment can be described thus: Immunoblot of pancreatic tumors: apoptosis, autophagy, HIF1a. The experiment is classed as in vivo, C57BL/6J mice. The settings on record: obestatin 500 nmol/Kg/72 h. How it is done:
FIG. 5. Immunoblot analysis of p62, LC3, cleaved caspase 3, Bax, and HIF1a in the pancreatic tumors of C57BL/6J mice (n=4) orthotopically injected with KPC FC1242 cells and treated with vehicle [NaCl, 0.9% (w/v)] or obestatin (500 nmol/Kg/72 h). Results are expressed as fold of control of the non-treated injected mice [control; mean±SE (*, P<0.05)].
(§1) Mice were weighed at set times over the 15-day period. The sterilized surgical material was used for the tissue extraction. Pancreases and muscles were carefully removed from each animal minimizing contamination with surrounding tissue or mouse hair. Pancreases and muscles were weighed. The skeletal muscles selected were: tibialis anterior, TA; extensor digitorum longus, EDL; gastrocnemius, GAST; soleus, SOL; and diaphragm, DIA. Pancreases were also measured with a scale (cm) and pictures were taken. • Histology—Pancreas samples for histology were fixed in 4% paraformaldehyde in PBS at room temperature overnight. After fixation, samples were dehydrated and embedded in paraffin blocks. For this study, 3-micron sections were cut from each block and placed on pre-cleaned slides (Thermo Fisher Scientific, Waltham, MA, USA). The sectioned tissue slides were covered with a thin layer of paraffin, stoked at 60° C. for 1 hour and stored protected from light at room temperature to preserve the antigenicity of sections. • Immunoblot—For immunoblot analysis, pancreases were immediately frozen in dry ice and stored at −80° C. until use. Tissues were homogenized using a TissueLyser II tissue homogenizer (Qiagen, Hilden, DE), in 200 μL of RIPA lysis buffer at 30 Hz for 3 min. The lysates were clarified by centrifugation (18,000×g, 15 min, 4° C.), and the protein concentration was quantified by the Quantipro™ BCA assay kit (Sigma-Aldrich, St. Louis, MO, US).
(§2) Tissues were disrupted and homogenized in ice-cold lysis buffer [50 mM Tris-HCl pH 7.2, 150 mM NaCl, 1 mM EDTA, 1% (v/v) NP-40, 0.25% (w/v) Na-deoxycholate, protease inhibitor cocktail (PIC; 1:100; Sigma Chemical Co., St. Luis, MO, US), phosphatase inhibitor cocktail (PHIC; 1:100; Sigma Chemical Co., St. Luis, MO, US)] with 5 mm stainless steel beads using a TissueLyser (Qiagen, Hilden, DE) at 30 Hz for 3 min. The soluble cell lysates were pre-cleared by centrifuging at 14,000 rpm for 15 min. Supernatants were recovered and the protein was quantified with BCA Protein Assay Kit (Thermo Fisher Scientific, Rockford, IL, US). The same amount of protein for each sample was separated on 7-15% SDS/polyacrylamide gels and transferred to nitrocellulose membranes (Bio-Rad, Hercules, CA, US). The blots were incubated with 5% bovine serum albumin (BSA) in a Tris buffer solution (TBS) containing Tween-20 [TBST; 20 mM Tris-HCl (pH 8.0), 150 mM NaCl, 0.1% (v/v) Tween-20, solution used for all incubation and washing steps] for 1 h. The blots were then incubated with the corresponding primary antibodies and subsequently were incubated with the corresponding peroxidase-conjugated IgG antibody (Table 1). After washing, the signals were visualized using an ECL plus Western Blotting Detection System (Pierce ECL Western Blotting Substrate; Thermo Fisher Scientific, Pierce, Rockford, IL, US). The image processing was performed using the NIH Image Software ImageJ 1.53o (National Institutes of Health, Bethesda, MD, US).

The subject of the next experiment is RWP1 cells. The experiment can be described thus: Proliferation assay, cell counting under chronic obestatin treatment. The experiment is classed as cell-based, human. How it is done: (§3) PANC1 cell line was obtained from ECACC (87092802; ECACC, Wiltshire, UK). RWP1 and BxPC3 human pancreatic cancer cell lines were kindly provided by FX Real (Epithelial Carcinogenesis Group, Cancer Cell Biology Programme, Spanish National Cancer Research Centre-CNIO, Madrid, ES). In brief, PANC1 cells were cultured in DMEM (supplemented with 4.5 g/L glucose, 10% FBS, and 1% penicillin/streptomycin), RWP1 and BxPC3 cell lines were maintained in RPMI (supplemented with 10% FBS and 1% penicillin/streptomycin) and incubated in an atmosphere containing 5% CO2 at 37° C. These cells were periodically tested and resulted negative for mycoplasma contamination.
(§4) For the analysis of proliferation the cells were seeded on 12-well plates at an amount of 50,000 cells per well and maintained for 24 h in culture media (see above) to allow attachment. The medium was completely removed and replaced with serum-free media for additional 24 h. Then, cells were treated or not with different doses of obestatin: mouse obestatin (corresponding to SEQ ID NO: 4) for KPC FC1242 and human obestatin (corresponding to SEQ ID NO: 1) for PANC1, RWP1 and BxPC3. The following treatments were used: 0% FBS as negative control, 10% FBS as positive control, 100 nM obestatin, 200 nM obestatin, 100 nM obestatin+10% FBS, and 200 nM obestatin+10% FBS. These treatments were administered every 24 h for three days. Twenty-four h after the last treatment, the cells were trypsinized and manually counted with a Neubauer camera.
(§5) The total cells were calculated using the following equations counting 10 squares: […]
(§6) In all cases, each experiment point was replicated eight times.

In a further experiment the test system is PANC1 cells. The description is as above. Type of experiment: cell-based, human. How it is done: as §3, §4, §5, §6
Another experiment concerns BxPC3 cells. The description is as above. Type of experiment: cell-based, human. How it is done: as §3, §4, §5, §6
Experiment [2] concerns aSMA, HSP47, vimentin, collagen I, fibronectin, ADRP. The experiment can be described thus: Immunoblot of pancreatic tumors: fibrosis and CAF markers. Type of experiment: in vivo, C57BL/6J mice. The settings on record: obestatin 500 nmol/Kg/72 h. How it is done:
FIG. 6. Immunoblot analysis of aSMA, vimentin, collagen I, fibronectin, and ADPR in the pancreatic tumors of C57BL/6J mice (n=4) orthotopically injected with KPC FC1242 cells and treated with vehicle [NaCl, 0.9% (w/v)] or obestatin (500 nmol/Kg/72 h). Results are expressed as fold of control of the non-treated injected mice [control; mean±SE (*, P<0.05)].
as §1, §2

The mark [3] stands for this setting: 100 nM obestatin+10% FBS each 24 h for 72 h.
Setting [4] is: human obestatin (SEQ ID NO: 1) 100 nM each 24 h for 72 h, serum-free.

On to obestatin, for which, in experiment [1] (compared to control or vehicle-treated animals), the “increased expression of HIF1a” value came out at 106.6±17.8%. In experiment [1] (pancreatic tumors), the “diminution in LC3-I” value worked out at 9.2±7.5%, the “increase in cleaved caspase 3” value is 264.6±57.7%, the “increase in levels of proapoptotic Bax” value was determined as 141.6±28.4% and the “reduction in LC3-II levels” value was found to be 21.8±7.3%. Further, the “upregulation in p62” value in experiment [1] (pancreatic tumors) is recorded as 75.7±20.8%. In addition, the “effect on FBS-mediated proliferation” value with RWP1 cells (setting [3]) was “significant inhibitory effect”. In addition, the “proliferation (number of cells)” value in the experiment on RWP1 cells (setting [4]) is given as “does not activate the proliferation”. The “effect on FBS-mediated proliferation” value in the experiment with PANC1 cells (setting [3]) is “significant inhibitory effect”. For the same substance, the “proliferation (number of cells)” value with PANC1 cells (setting [4]) is reported as “does not activate the proliferation”. Moreover, the “effect on FBS-mediated proliferation” value with BxPC3 cells (setting [3]) is “significant inhibitory effect”. Also, the “proliferation (number of cells)” value with BxPC3 cells (setting [4]) is “does not activate the proliferation”. In experiment [2], the “adipophilin (ADRP) diminished” value came out at 42.6±8.8%, the augment of vimentin came out at 111.1±19.1%, the “higher levels of HSP47” value worked out at 49.5±17.7% and the “increased expression of aSMA” value was 53.7±7.3%. Also, in experiment [2], the “inhibition of expression of collagen” value was found to be 60.1±2.9% and the “inhibition of expression of fibronectin” value was 57.0±7.1%.
